In US6372727B1, “Metalloporphyrin treatment of neurologic disease” (UAB Research Foundation, priority 1999, dated 2002):

What was measured:
cultured motor neurons = experiment: Protection of cultured motor neurons from growth factor withdrawal; format: cell-based
Procedure: Culture Motor neurons were prepared from embryonic day 15 (E15) rat spinal cords by a combination of metrizamide gradient centrifugation and immunopanning with the monoclonal antibody IgG192 (Chandler et al., J. Biol. Chem. 259:6882-6889, 1984) as previously described (Estevez et al., J Neurosci 18:923-931, 1998; Henderson C E, Bloch-Gallego E, Camu W (1995): Purification and culture of embryonic motorneurons. In Cohen J, Wilkin G (eds): Neural Cell Culture: A Practical Approach. Oxford, England: IRL Press, pp 69-81). Long-term cultures of motor neurons were performed as described by Pennica et al. (Pennica et al., Neuron 17:63-74, 1996). Briefly, motor neurons were plated at a density of 200 cells/cm2 on 35 mm dishes precoated with polyornithine-laminin in Neurobasal medium supplemented with B27 (Life Technologies, Grand Island, N.Y.), 2% horse serum, 0.5 mM L-glutamine, 25 μM 2-mercaptoethanol and 25 μM L-glutamate. Every 3-4 days ¾ of the culture medium was replaced by fresh medium lacking L-glutamate and containing sufficient quantities of BDNF or FeTCPP to supplement the 2 ml of medium in the dish. More than 94% of the cells were immunoreactive for the p75 low-affinity neurotrophic receptor (p75NTR) and Islet ½, which are markers for motor neurons. The experiments were repeated at least 2 times using the same lot of Neurobasal medium and B 27 supplement.
The number of motor neurons with neurites longer than 4 soma diameters present in parallel cultures treated with BDNF at a final concentration of 100 pg/ml 24 h after plating or culture media replacement was considered 100% motor neuron survival. FeTCPP was resuspended in complete Neurobasal medium at a 5 mM concentration. Dilutions were performed of the stock solution to add 20 μl per dish.
Rat motor neurons survive many days in culture when brain-derived neurotrophic factor (BDNF) is added to the culture media. Because motor neurons are the cells that preferentially die in ALS, primary cultures of motor neurons represent the best non-animal model of ALS. Withdrawal of BDNF results in apoptotic death of >70% of motor neurons within 24 h. Cell death was correlated with expression of the neuronal form of nitric oxide synthase (nNOS) and the production of peroxynitrite, as evidenced by protein tyrosine nitration. When FeTCPP is added to the culture media in place of BDNF and motor neuron survival is assessed at 24 h, some protection is seen at concentrations as low as 0.01 μM (FIG. 10A). […] Additionally, a comparison of the effect of FETCPP and its tetra-methyl ester derivative, TMeO-FeTCPP, on motor neuron survival at 72 hr.

[1] = system: ALS-SOD1 (G93A) transgenic mice; experiment: Survival of ALS-SOD1 (G93A) transgenic mice; format: in vivo
Procedure: FIG. 13A: Transgenic mice (n=9) were injected intraperitoneally with 3 mg/kg/day of a low molecular weight (844.6) synthetic iron porphyrin. […] Treatment was continued until such time that signs of diaphragm weakness (labored breathing) necessitated sacrifice. A control group of transgenic mice was treated with vehicle only (phosphate-buffered saline). FIG. 13B: Transgenic mice were injected intraperitoneally with 1 mg/kg/day of a low molecular weight (844.6) synthetic iron porphyrin. Treatment began at day 60 prior to the onset of symptoms. A control group of transgenic mice was treated with vehicle only (phosphate-buffered saline).
Mice transgenic for the G93A mutated form of SOD1 are generally accepted as the standard model of motor neuron disease. […] This compound extended the mean survival time by 13 days (from 127 to 140 days) (FIG. 13A).
A group of G93A mice was treated with 1 mg/kg of FeTCPP intraperitoneally beginning at 60 days of age. As with the control group in FIG. 13A, none of the control group in this test survived past 132 days. However, the probability of survival at 140 days was about 37% and at approximately 180 days survival was still at 20%.

[2] = Spectral scans of peroxynitrite-oxidized Mn porphyrins and re-reduction of Mn(IV); format: biochemical
Procedure: The peaks at 428 nm (left arrows) are due to Mn(IV)=O (15) whereas the 464 nm peaks (right arrows) are due to Mn(III). […] INSET: The indicated amounts of peroxynitrite were added to solutions of MnTBAP (10 μM) in phosphate buffer and the decrease in 464 nm absorbance was monitored at a data collection rate of 10 points/s. The maximal change in 464 nm absorbance associated with oxidation of Mn(III) to Mn(IV), which occurred in >1 s, was plotted versus peroxynitrite; the concentration at which no further absorbance change occurred was used to establish the reaction stoichiometry.

[3] = 1 mg/kg intraperitoneally beginning at 60 days of age

Row | Compound | survival of cultured motor neurons deprived of growth factors (cultured motor neurons) | long-term motor neuron survival compared with BDNF (cultured motor neurons; 0.1 μM and 1.0 μM) | maximal cell survival (cultured motor neurons; 0.1 μM, 24 h, in place of BDNF, 100% = BDNF 100 pg/ml) | cell survival (cultured motor neurons; 100 μM, 24 h, in place of BDNF) | dose-response for survival of motor neurons at 72 h (cultured motor neurons; 72 h) | lowest concentration at which some protection is seen (cultured motor neurons; added in place of BDNF, survival at 24 h) | cell survival at day 16 (cultured motor neurons; lower dose (0.1 μM), long-term culture) | toxicity to motor neurons (cultured motor neurons; relatively high concentrations, 100 μM) | probability of survival at 140 days [1, 3] | survival at approximately 180 days [1, 3] | mean survival time ([1]; 5 mg/kg, treatment from onset of symptoms) | extension of mean survival time ([1]; 5 mg/kg, treatment from onset of symptoms, versus vehicle) | progression of motor neuron death in mice ([1]; G93A mutant of Cu,Zn superoxide dismutase transgene) | upper limit of survival time ([1]; administered at the onset of symptoms) | time to complete re-reduction to Mn(III) ([2]; 10 μM MP, peroxynitrite 20 μM alone) | time to complete re-reduction to Mn(III) ([2]; 50 μM H2O2 added before peroxynitrite) | time to complete re-reduction to Mn(III) ([2]; 50 μM nitrate added before peroxynitrite) | time to complete re-reduction to Mn(III) ([2]; 50 μM nitrite added before peroxynitrite) | time to complete re-reduction to Mn(III) ([2]; H2O2 and nitrate or H2O2 and nitrite added together)
1 | O=C(O)c1ccc(-c2c3nc(c(-c4ccc(C(=O)O)cc4)c4ccc([n-]4)c(-c4ccc(C(=O)O)cc4)c4nc(c(-c5ccc(C(=O)O)cc5)c5ccc2[n-]5)C=C4)C=C3)cc1.[Fe+2] [FeTCPP, Iron (III) meso 5,10,15,20-tetrakis-(4-carboxy-phenyl) porphyrin] | prolong survival of cultured motor neurons | as effective as BDNF | 90% | 90% | virtually identical to the 24 h survival results | 0.01 µM | 90% | not toxic | about 37% | 20% | 140 days | 13 days | slow the progression of motor neuron death | about 148 days | – | – | – | – | –
2 | C[n+]1ccc(-c2c3nc(c(-c4cc[n+](C)cc4)c4ccc([n-]4)c(-c4cc[n+](C)cc4)c4nc(c(-c5cc[n+](C)cc5)c5ccc2[n-]5)C=C4)C=C3)cc1.[Cl-].[Cl-].[Cl-].[Cl-].[Cl-].[Mn+3] [MnTMPyP, Manganese (III) meso-tetra-(N-methyl-4-pyridyl)-porphine chloride] | – | – | – | – | – | – | – | – | – | – | – | – | – | – | 30 s | 17 s | 74 s | 30 s | 17 s
